Measurements: paper PMC8151276, “An Integrated Approach toward NanoBRET Tracers for Analysis of GPCR Ligand Engagement” (Molecules, 2021)

Biological target: T1, FZD5 (Homo sapiens, UniProt Q13467)
T1 construct: purchased Promega (in-house HiBiT-GPCR construct library, NanoBRET)
Test: NanoBRET screen HiBiT-FZD5 in HEK293
Format: binding
Description: Each tracer candidate was screened across the entire library of HiBiT-GPCR constructs using NanoBRET as the detection modality. As depicted in Figure 4A, the specificity of interactions was evaluated through decrease in BRET due to competitive displacement of a bound tracer by excess parental compound. Each tracer was analyzed for binding to each HiBiT-GPCR fusion in the absence and in the presence of competing parental compound. Briefly, HEK293 cells were transfected with HiBiT-GPCR constructs diluted into promoterless DNA to reduce expression and maximize translocation to the cell surface. Each tracer candidate was then screened at concentrations of 1 μM and 0.1 μM across cells expressing these fusions. Cells were treated for 1.5 h with tracer either alone or in the presence of 20 μM competing parental compound (i.e., control). BRET was measured upon addition of purified LgBiT and subsequent complementation with HiBiT genetically fused to a GPCR. The specificity of interactions was assessed through a decrease in BRET signal due to competitive displacement of the bound tracer. To further gauge the robustness of these interactions, the fold response over the control (i.e., BRETtracer/BRETcontrol) was calculated. We chose a 1.5-fold response, which translates to ≥7-fold signal over noise as the minimal threshold required to score an interaction as positive. […]. Below we highlight the screening results obtained for our exemplary fluorescent tracers based on Clozapine, Amitriptyline and AZD1283.
HiBiT-GPCR DNA constructs were diluted in 10 mM Tris pH 8 to a final concentration of 0.01 μg/μL, arrayed in 96-well plates and stored at −20 °C. For transfection, HEK293 cells were suspended in Opti-MEM (without phenol red) supplemented with 2% fetal bovine serum (Seradigm) and 100 units/mL penicillin–streptomycin (Gibco) at a final concentration of 220,000 cells/mL and dispensed into white 96-well plates at 90 μL/well. Subsequent transfections and screens were carried using an Agilent Bravo Automated Liquid Handling Platform. First, the 96-well HiBiT DNA arrays were diluted 25-fold in Opti-MEM (without serum or phenol red) to a final concentration of 0.0004 μg/μL and 20 μL of the diluted DNAs were transferred into new 96-well plates. Next, promoterless carrier DNA (1 μg/μL) was diluted 25-fold (0.04 μg/μL) and then dispensed into the diluted arrays at 20 μL/well. Following brief mixing, Viafect transfection reagent (Promega) diluted 16-fold into Opti-MEM was dispensed into the plates at 40 μL/well. After mixing by pipetting, plates were incubated for 10 min on the pipetting station deck. The DNA-transfection reagent complexes were then added to plates containing cells. To facilitate the screen, 10 μL of DNA-transfection reagent complexes were added in duplicates to the top 4 and bottom 4 rows, resulting in two identical 48-well arrays per plate. Plates with transfected cells were incubated for 18–20 h at 37 °C/5% CO2. A screen of each tracer across the entire library using two different concentrations requires duplicate plates of transfected cells. Depending on the number of tracers being screened, transfections can be scaled up using the same ratios. The next day, for each tracer, four 20× screening solutions in tracer dilution buffer (Promega) were prepared: two duplicates at final concentration of 20 μM and two duplicates at a final concentration of 2 μM. A competing unmodified compound was added to one of each duplicate at a final concentration of 400 μM. The four resulting solutions were diluted 4-fold in Opti-MEM without serum or phenol red to generate 5× solutions (5 µM and 0.5 µM tracer +/− 100 μM competing compound). To screen the library, a BioTek MultiFlo FX liquid dispenser was used to dispense 22.5 µL of tracer solution to the top 4 rows and 22.5 µL tracer + competing compound solution to the 4 bottom rows. Plates were briefly mixed on an orbital shaker and incubated for 1.5 h at room temperature. […]

T1 sequence (Q13467 27-585): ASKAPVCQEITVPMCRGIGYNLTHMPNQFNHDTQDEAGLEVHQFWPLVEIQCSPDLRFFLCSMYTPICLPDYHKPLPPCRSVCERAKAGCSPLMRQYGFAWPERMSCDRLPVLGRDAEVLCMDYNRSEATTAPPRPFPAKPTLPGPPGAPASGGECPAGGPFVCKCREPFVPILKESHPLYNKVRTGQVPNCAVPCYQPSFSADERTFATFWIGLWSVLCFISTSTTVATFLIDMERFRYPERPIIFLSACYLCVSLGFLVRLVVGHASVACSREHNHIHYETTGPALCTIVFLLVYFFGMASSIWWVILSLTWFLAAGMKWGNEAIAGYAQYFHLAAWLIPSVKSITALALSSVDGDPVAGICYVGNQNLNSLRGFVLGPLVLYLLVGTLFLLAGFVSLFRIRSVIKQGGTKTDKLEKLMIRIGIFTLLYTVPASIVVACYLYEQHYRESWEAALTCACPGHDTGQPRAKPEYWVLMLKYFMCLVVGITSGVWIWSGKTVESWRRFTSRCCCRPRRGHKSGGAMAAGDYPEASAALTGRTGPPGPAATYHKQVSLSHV

SMILES | NanoBRET Fold Response (FZD5, tracer 0.1μM) | NanoBRET Fold Response (FZD5, tracer 1μM) | further results
Cc1nc2n(c(=O)c1CCN1CCC(c3noc4cc(F)ccc34)CC1)CCCC2OC(=O)NCCOCCOCCOCCOCCNC(=O)CCc1ccc2n1[B-](F)(F)[N+]1=C(c3ccc[nH]3)C=CC1=C2 (centres unmarked) [Risperidone-2-NB590] | 0.95 | 0.99 | –
CCOC(=O)c1cc(C#N)c(N2CCC(C(=O)NS(=O)(=O)Cc3ccccc3/C=C/C(=O)NCCNC(=O)CCc3ccc4n3[B-](F)(F)[N+]3=C(c5ccc[nH]5)C=CC3=C4)CC2)nc1C [AZD1283-1-NB590] | – | – | NanoBRET Fold Response (FZD5, 0.1μM): 1.07; NanoBRET Fold Response (FZD5, 1μM): 1.05
Cc1cc2c(s1)Nc1ccccc1N=C2N1CCN(CCCNC(=O)CCOCCOCCOCCOCCNC(=O)CCc2ccc3n2[B-](F)(F)[N+]2=C(c4ccc[nH]4)C=CC2=C3)CC1 [Olanzapine-a-2-NB590] | 1.00 | 1.02 | –
COc1ccccc1N1CCN(CCCCN2C(=O)c3ccc(CNC(=O)CCOCCNC(=O)c4ccc(CNC(=O)CCc5ccc6n5[B-](F)(F)[N+]5=C(c7ccc[nH]7)C=CC5=C6)cc4)cc3C2=O)CC1 [NAN-190-3-NB590] | 0.97 | 1.00 | –
CC(C)N(CC[C@H](c1ccccc1)c1cc(CCNC(=O)CCOCCOCCOCCOCCNC(=O)CCc2ccc3n2[B-](F)(F)[N+]2=C(c4ccc[nH]4)C=CC2=C3)ccc1O)C(C)C [Tolterodine-2-NB590] | 0.87 | 1.07 | –
CN(C)CCC=C1c2ccccc2CCc2ccc(C(=O)NCCNC(=O)CCOCCOCCOCCOCCNC(=O)CCc3ccc4n3[B-](F)(F)[N+]3=C(c5ccc[nH]5)C=CC3=C4)cc21 [Amitriptyline-b-2-NB590] | – | – | NanoBRET Fold Response (tracer at 0.1μM): 0.97; NanoBRET Fold Response (tracer at 1μM, listed as amitriptyline-b-2-NB590): 0.99
O=C(CCOCCOCCOCCOCCNC(=O)CCc1ccc2n1[B-](F)(F)[N+]1=C(c3ccc[nH]3)C=CC1=C2)NCCCN1CCN(C2=Nc3ccccc3Oc3ccc(Cl)cc32)CC1 [Loxapine-a-2-NB590] | 1.01 | 0.89 | –
CN(C)CCC=C1c2ccccc2CCc2ccc(C(=O)NCCNC(=O)CCOCCOCCOCCOCCNC(=O)CCc3ccc4n3[B-](F)(F)[N+]3=C(c5ccc[nH]5)C=CC3=C4)cc21 [Amitriptyline-a-2-NB590] | – | – | NanoBRET Fold Response (tracer at 0.1μM): 1.01; NanoBRET Fold Response (tracer at 1μM): 0.97
O=C(CCc1ccc2n1[B-](F)(F)[N+]1=C(c3ccc[nH]3)C=CC1=C2)NCCOCCOCCNC(=O)OCCOCCN1CCN(C2=Nc3ccccc3Sc3ccccc32)CC1 [Quetiapine-a-2-NB590] | 1.03 | 0.91 | –
COc1ccccc1N1CCN(CCCCN2C(=O)c3ccc(CNC(=O)CCOCCOCCOCCOCCNC(=O)CCc4ccc5n4[B-](F)(F)[N+]4=C(c6ccc[nH]6)C=CC4=C5)cc3C2=O)CC1 [NAN-190-2-NB590] | 0.97 | 1.00 | –
CN1CCN(C2=Nc3cc(Cl)ccc3N(CC(=O)NCCOCCOCCOCCOCCNC(=O)CCc3ccc4n3[B-](F)(F)[N+]3=C(c5ccc[nH]5)C=CC3=C4)c3ccccc32)CC1 [Clozapine-c-2-NB590] | – | – | NanoBRET Fold Response (FZD5, 0.1μM tracer): 1.00; NanoBRET Fold Response (FZD5, 1μM tracer): 1.04
COc1ccc2[nH]c(-c3ccc(CNC(=O)CCOCCOCCOCCOCCNC(=O)CCc4ccc5n4[B-](F)(F)[N+]4=C(c6ccc[nH]6)C=CC4=C5)cc3)c(CCNC(C)=O)c2n1 [AzomelatoninICO9-2-NB590] | – | – | NanoBRET Fold Response (0.1μM tracer): 0.97; NanoBRET Fold Response (1μM tracer): 0.93
O=C(CCOCCOCCOCCOCCNC(=O)CCc1ccc2n1[B-](F)(F)[N+]1=C(c3ccc[nH]3)C=CC1=C2)NCCCN1CCN(C2=Nc3cc(Cl)ccc3Nc3ccccc32)CC1 [Clozapine-a-2-NB590] | – | – | NanoBRET Fold Response (FZD5, 0.1μM tracer): 1.15; NanoBRET Fold Response (FZD5, 1μM tracer): 0.95
CCCn1c(=O)c2[nH]c(-c3ccc(OCC(=O)NCCNC(=O)CCOCCNC(=O)c4ccc(CNC(=O)CCc5ccc6n5[B-](F)(F)[N+]5=C(c7ccc[nH]7)C=CC5=C6)cc4)cc3)nc2n(CCC)c1=O [XAC-3-NB590] | 1.13 | 0.95 | –
O=C(CCc1ccc2n1[B-](F)(F)[N+]1=C(c3ccc[nH]3)C=CC1=C2)NCc1ccc(C(=O)NCCOCCOCCNCC(O)COc2cccc3ccccc23)cc1 (centres unmarked) [Propranolol-3-NB590] | – | – | NanoBRET Fold Response (FZD5, 0.1μM): 1.07; NanoBRET Fold Response (FZD5, 1μM): 1.02
O=C(CCc1ccc2n1[B-](F)(F)[N+]1=C(c3ccc[nH]3)C=CC1=C2)NCc1ccc(C(=O)NCCOCCC(=O)N[C@@H]2CC[C@@]3(O)[C@H]4Cc5ccc(O)c6c5[C@@]3(CCN4CC3CC3)[C@H]2O6)cc1 [Naltrexone-3-NB590] | 0.99 | 0.98 | –
CN(CCC=C1c2ccccc2CCc2ccccc21)C(=O)CCOCCOCCOCCOCCNC(=O)CCc1ccc2n1[B-](F)(F)[N+]1=C(c3ccc[nH]3)C=CC1=C2 [Amitriptyline-e-2-NB590] | – | – | NanoBRET Fold Response (tracer at 1μM): 0.98
N#CN=C(NCCCOc1cccc(CN2CCCCC2)c1)NCCNC(=O)CCOCCOCCOCCOCCNC(=O)CCc1ccc2n1[B-](F)(F)[N+]1=C(c3ccc[nH]3)C=CC1=C2 [Aminopotentidine-2-NB590] | 1.06 | 1.05 | –
COc1ccc2c(n1)c(CCNC(C)=O)cn2CCNC(=O)CCc1ccc2n1[B-](F)(F)[N+]1=C(c3ccc[nH]3)C=CC1=C2 [Azamelatonin-1-NB590] | – | – | NanoBRET Fold Response (0.1μM tracer): 0.88; NanoBRET Fold Response (1μM tracer): 0.88
CC(C)N(CC[C@H](c1ccccc1)c1cc(CCNC(=O)c2ccc(CNC(=O)CCc3ccc4n3[B-](F)(F)[N+]3=C(c5ccc[nH]5)C=CC3=C4)cc2)ccc1O)C(C)C [Tolterodine-BZ-NB590] | 1.12 | 1.03 | –
CN1CCN(C2=Nc3cc(Cl)ccc3Nc3ccc(CNC(=O)CCOCCOCCOCCOCCNC(=O)CCc4ccc5n4[B-](F)(F)[N+]4=C(c6ccc[nH]6)C=CC4=C5)cc32)CC1 [Clozapine-b-2-NB590] | – | – | NanoBRET Fold Response (FZD5, 0.1μM tracer): 1.00; NanoBRET Fold Response (FZD5, 1μM tracer): 1.04
